Measured values published in publication PMC9518264, “Design and synthesis of novel quinazolinone-based derivatives as EGFR inhibitors with antitumor activity” (Journal of Enzyme Inhibition and Medicinal Chemistry, 2022).
Like-named read-outs stand apart in the source and are kept apart here.

Assays:
CCRF-CEM = assay: cells; type: cell-based; settings: Homo sapiens, read-out: growth inhibition % (GI%)
HL-60(TB) = assay: cells; type: cell-based; settings: Homo sapiens
MOLT-4 = assay: cells; type: cell-based; settings: Homo sapiens
RPMI-8226 = assay: cells; type: cell-based; settings: Homo sapiens
SR = assay: cells; type: cell-based; settings: Homo sapiens, read-out: growth inhibition % (GI%)
A549/ATCC = assay: cells; type: cell-based; settings: Homo sapiens
EKVX = assay: cells; type: cell-based; settings: Homo sapiens, read-out: growth inhibition % (GI%)
HOP-62 = assay: cells; type: cell-based; settings: Homo sapiens
HOP-92 = assay: cells; type: cell-based; settings: Homo sapiens
NCI-H226 = assay: cells; type: cell-based; settings: Homo sapiens
NCI-H322M = assay: cells; type: cell-based; settings: Homo sapiens, read-out: growth inhibition % (GI%)
NCI-H460 = assay: cells; type: cell-based; settings: Homo sapiens
NCI-H522 = assay: cells; type: cell-based; settings: Homo sapiens
COLO-205 = assay: cells; type: cell-based; settings: Homo sapiens
HCC-2998 = assay: cells; type: cell-based; settings: Homo sapiens
HCT-116 = assay: cells; type: cell-based; settings: Homo sapiens
HCT-15 = assay: cells; type: cell-based; settings: Homo sapiens
HT29 = assay: cells; type: cell-based; settings: Homo sapiens
SW-620 = assay: cells; type: cell-based; settings: Homo sapiens
SF-295 = assay: cells; type: cell-based; settings: Homo sapiens
SF-539 = assay: cells; type: cell-based; settings: Homo sapiens
SNB-19 = assay: cells; type: cell-based; settings: Homo sapiens
SNB-75 = assay: cells; type: cell-based; settings: Homo sapiens
U251 = assay: cells; type: cell-based; settings: Homo sapiens
MALME-3M = assay: cells; type: cell-based; settings: Homo sapiens, read-out: growth inhibition % (GI%)
SK-MEL-2 = assay: cells; type: cell-based; settings: Homo sapiens
SK-MEL-28 = assay: cells; type: cell-based; settings: Homo sapiens
SK-MEL-5 = assay: cells; type: cell-based; settings: Homo sapiens
UACC-257 = assay: cells; type: cell-based; settings: Homo sapiens
UACC-62 = assay: cells; type: cell-based; settings: Homo sapiens
OVCAR-4 = assay: cells; type: cell-based; settings: Homo sapiens
OVCAR-5 = assay: cells; type: cell-based; settings: Homo sapiens
NCI/ADR-RES = assay: cells; type: cell-based; settings: Homo sapiens, read-out: growth inhibition % (GI%)
786-0 = assay: cells; type: cell-based; settings: Homo sapiens
A498 = assay: cells; type: cell-based; settings: Homo sapiens
ACHN = assay: cells; type: cell-based; settings: Homo sapiens, read-out: growth inhibition % (GI%)
SN12C = assay: cells; type: cell-based; settings: Homo sapiens, read-out: growth inhibition % (GI%)
TK-10 = assay: cells; type: cell-based; settings: Homo sapiens
UO-31 = assay: cells; type: cell-based; settings: Homo sapiens
PC-3 = assay: cells; type: cell-based; settings: Homo sapiens
DU-145 = assay: cells; type: cell-based; settings: Homo sapiens
MCF7 = assay: cells; type: cell-based; settings: Homo sapiens
BT-549 = assay: cells; type: cell-based; settings: Homo sapiens
T-47D = assay: cells; type: cell-based; settings: Homo sapiens, T47D, read-out: growth inhibition % (GI%)
[1] = system: panel of 60 tumour cell lines; assay: NCI 60 cell line antiproliferative screening (SRB), whole panel or subpanels (means, ranges, words); type: cell-based, human; settings: for inhibition at 10 µM: Homo sapiens, 60 cell, mean over the cell line panel, read-out: Mean growth inhibition % (mean GI%)
MDA-MB-468 = assay: NCI 60 cell line antiproliferative screening (SRB), Breast cancer; settings: Homo sapiens, MDA-MB-468, read-out: growth inhibition % (GI%)
OVCAR-3 = assay: NCI 60 cell line antiproliferative screening (SRB), Ovarian cancer; settings: Homo sapiens, OVCAR-3, read-out: growth inhibition % (GI%)

## CN1CCN(c2ccc(C=NNC(=O)CSc3nc4ccccc4c(=O)n3-c3ccc(Cl)cc3)cc2)CC1 [6l, 2-((3–(4-chlorophenyl)-4-oxo-3,4-dihydroquinazolin-2-yl)thio)-N'-(4–(4-methylpiperazin-1-yl)benzylidene)acetohydrazide]
CCRF-CEM; 10 μM
  inhibition at 10 µM: < 15%
HL-60(TB); HL-60(TB), 10 μM, read-out: growth inhibition % (GI%)
  inhibition at 10 µM: < 15%
MOLT-4; MOLT-4, 10 μM, read-out: growth inhibition % (GI%)
  inhibition at 10 µM: < 15%
RPMI-8226; RPMI-8226, 10 μM, read-out: growth inhibition % (GI%)
  inhibition at 10 µM: < 15%
SR; 10 μM
  inhibition at 10 µM: < 15%
A549/ATCC; A549/ATCC, 10 μM, read-out: growth inhibition % (GI%)
  inhibition at 10 µM: < 15%
EKVX; 10 μM
  inhibition at 10 µM: < 15%
HOP-62; HOP-62, 10 μM, read-out: growth inhibition % (GI%)
  inhibition at 10 µM: < 15%
HOP-92; HOP-92, 10 μM, read-out: growth inhibition % (GI%)
  inhibition at 10 µM: < 15%
NCI-H226; NCI-H226, 10 μM, read-out: growth inhibition % (GI%)
  inhibition at 10 µM: < 15%
NCI-H322M; 10 μM
  inhibition at 10 µM: < 15%
NCI-H460; NCI-H460, 10 μM, read-out: growth inhibition % (GI%)
  inhibition at 10 µM: < 15%
NCI-H522; NCI-H522, 10 μM, read-out: growth inhibition % (GI%)
  inhibition at 10 µM: < 15%
COLO-205; COLO-205, 10 μM, read-out: growth inhibition % (GI%)
  inhibition at 10 µM: < 15%
HCC-2998; HCC-2998, 10 μM, read-out: growth inhibition % (GI%)
  inhibition at 10 µM: < 15%
HCT-116; HCT-116, 10 μM, read-out: growth inhibition % (GI%)
  inhibition at 10 µM: < 15%
HCT-15; HCT-15, 10 μM, read-out: growth inhibition % (GI%)
  inhibition at 10 µM: < 15%
HT29; HT-29, HT29, 10 μM, read-out: growth inhibition % (GI%)
  inhibition at 10 µM: < 15%
SW-620; SW-620, 10 μM, read-out: growth inhibition % (GI%)
  inhibition at 10 µM: < 15%
SF-295; SF-295, 10 μM, read-out: growth inhibition % (GI%)
  inhibition at 10 µM: < 15%
SF-539; SF-539, 10 μM, read-out: growth inhibition % (GI%)
  inhibition at 10 µM: < 15%
SNB-19; SNB-19, 10 μM, read-out: growth inhibition % (GI%)
  inhibition at 10 µM: < 15%
SNB-75; SNB-75, 10 μM, read-out: growth inhibition % (GI%)
  inhibition at 10 µM: < 15%
U251; U-251, U251, 10 μM, read-out: growth inhibition % (GI%)
  inhibition at 10 µM: < 15%
MALME-3M; MALME-3M, 10 μM
  inhibition at 10 µM: < 15%
SK-MEL-2; SK-MEL-2, 10 μM, read-out: growth inhibition % (GI%)
  inhibition at 10 µM: < 15%
SK-MEL-28; SK-MEL-28, 10 μM, read-out: growth inhibition % (GI%)
  inhibition at 10 µM: < 15%
SK-MEL-5; SK-MEL-5, 10 μM, read-out: growth inhibition % (GI%)
  inhibition at 10 µM: < 15%
UACC-257; UACC-257, 10 μM, read-out: growth inhibition % (GI%)
  inhibition at 10 µM: < 15%
UACC-62; UACC-62, 10 μM, read-out: growth inhibition % (GI%)
  inhibition at 10 µM: < 15%
OVCAR-4; OVCAR-4, 10 μM, read-out: growth inhibition % (GI%)
  inhibition at 10 µM: < 15%
OVCAR-5; OVCAR-5, 10 μM, read-out: growth inhibition % (GI%)
  inhibition at 10 µM: < 15%
NCI/ADR-RES; 10 μM
  inhibition at 10 µM: < 15%
786-0; 786-0, 10 μM, read-out: growth inhibition % (GI%)
  inhibition at 10 µM: < 15%
A498; A498, 10 μM, read-out: growth inhibition % (GI%)
  inhibition at 10 µM: 32.6%
ACHN; 10 μM
  inhibition at 10 µM: < 15%
SN12C; 10 μM
  inhibition at 10 µM: < 15%
TK-10; TK-10, 10 μM, read-out: growth inhibition % (GI%)
  inhibition at 10 µM: < 15%
UO-31; UO-31, 10 μM, read-out: growth inhibition % (GI%)
  inhibition at 10 µM: < 15%
PC-3; PC-3, 10 μM, read-out: growth inhibition % (GI%)
  inhibition at 10 µM: < 15%
DU-145; DU-145, 10 μM, read-out: growth inhibition % (GI%)
  inhibition at 10 µM: < 15%
MCF7; MCF7, 10 μM, read-out: growth inhibition % (GI%)
  inhibition at 10 µM: < 15%
BT-549; BT-549, 10 μM, read-out: growth inhibition % (GI%)
  inhibition at 10 µM: < 15%
T-47D; T-47D, 10 μM
  inhibition at 10 µM: < 15%
[1]; 10 μM single dose
  antiproliferative activity against all tested cell lines: did not show activity
[1]
  inhibition at 10 µM: < 0%
MDA-MB-468
  inhibition at 10 µM: < 15%
OVCAR-3
  inhibition at 10 µM: < 15%

## O=C(CSc1nc2ccccc2c(=O)n1-c1ccccc1)NN=Cc1ccc(Oc2ccc(Br)cc2)cc1 [6b, N'-(4–(4-bromophenoxy)benzylidene)-2-((4-oxo-3-phenyl-3,4-dihydroquinazolin-2-yl)thio) acetohydrazide]
CCRF-CEM
  inhibition at 10 µM: 43.1%
HL-60(TB); HL-60, read-out: growth inhibition % (GI%)
  inhibition at 10 µM: < 15%
MOLT-4; MOLT-4, read-out: growth inhibition % (GI%)
  inhibition at 10 µM: 44.5%
RPMI-8226; RPMI-8226, read-out: growth inhibition % (GI%)
  inhibition at 10 µM: 31.7%
SR
  inhibition at 10 µM: 26.6%
A549/ATCC; A549, read-out: growth inhibition % (GI%)
  inhibition at 10 µM: 57.8%
EKVX
  inhibition at 10 µM: 39.3%
HOP-62; HOP-62, read-out: growth inhibition % (GI%)
  inhibition at 10 µM: 36.1%
HOP-92; HOP-92, read-out: growth inhibition % (GI%)
  inhibition at 10 µM: 27%
NCI-H226; NCI-H226, read-out: growth inhibition % (GI%)
  inhibition at 10 µM: 22.4%
NCI-H322M
  inhibition at 10 µM: < 15%
NCI-H460; NCI-H460, read-out: growth inhibition % (GI%)
  inhibition at 10 µM: 72%
NCI-H522; NCI-H522, read-out: growth inhibition % (GI%)
  inhibition at 10 µM: 51.5%
COLO-205; COLO 205, read-out: growth inhibition % (GI%)
  inhibition at 10 µM: 55.6%
HCC-2998; HCC 2998, read-out: growth inhibition % (GI%)
  inhibition at 10 µM: < 15%
HCT-116; HCT-116, read-out: growth inhibition % (GI%)
  inhibition at 10 µM: 92.2%
HCT-15; HCT-15, read-out: growth inhibition % (GI%)
  inhibition at 10 µM: 36.3%
HT29; HT-29, read-out: growth inhibition % (GI%)
  inhibition at 10 µM: 61.8%
SW-620; SW-620, read-out: growth inhibition % (GI%)
  inhibition at 10 µM: 70.4%
SF-295; SF-295, read-out: growth inhibition % (GI%)
  inhibition at 10 µM: 16.3%
SF-539; SF-539, read-out: growth inhibition % (GI%)
  inhibition at 10 µM: 31.3%
SNB-19; SNB-19, read-out: growth inhibition % (GI%)
  inhibition at 10 µM: 60.1%
SNB-75; SNB-75, read-out: growth inhibition % (GI%)
  inhibition at 10 µM: 42.2%
U251; U-251, read-out: growth inhibition % (GI%)
  inhibition at 10 µM: 78.5%
MALME-3M; Malme-3M
  inhibition at 10 µM: 45.1%
SK-MEL-2; SK-MEL-2, read-out: growth inhibition % (GI%)
  inhibition at 10 µM: < 15%
SK-MEL-28; SK-MEL-28, read-out: growth inhibition % (GI%)
  inhibition at 10 µM: 29.1%
SK-MEL-5; SK-MEL-5, read-out: growth inhibition % (GI%)
  inhibition at 10 µM: 40.9%
UACC-257; UACC-257, read-out: growth inhibition % (GI%)
  inhibition at 10 µM: < 15%
UACC-62; UACC-62, read-out: growth inhibition % (GI%)
  inhibition at 10 µM: 31.2%
OVCAR-4; OVCAR-4, read-out: growth inhibition % (GI%)
  inhibition at 10 µM: 18.3%
OVCAR-5; OVCAR-5, read-out: growth inhibition % (GI%)
  inhibition at 10 µM: < 15%
NCI/ADR-RES
  inhibition at 10 µM: 44.8%
786-0; 786-0, read-out: growth inhibition % (GI%)
  inhibition at 10 µM: 54%
A498; A498, read-out: growth inhibition % (GI%)
  inhibition at 10 µM: 17.7%
ACHN
  inhibition at 10 µM: < 15%
SN12C
  inhibition at 10 µM: 59.3%
TK-10; TK-10, read-out: growth inhibition % (GI%)
  inhibition at 10 µM: < 15%
UO-31; UO-31, read-out: growth inhibition % (GI%)
  inhibition at 10 µM: < 15%
PC-3; PC-3, read-out: growth inhibition % (GI%)
  inhibition at 10 µM: 28.2%
DU-145; DU-145, read-out: growth inhibition % (GI%)
  inhibition at 10 µM: 61.7%
MCF7; MCF7, read-out: growth inhibition % (GI%)
  inhibition at 10 µM: 31.1%
BT-549; BT-549, read-out: growth inhibition % (GI%)
  inhibition at 10 µM: 26.9%
T-47D
  inhibition at 10 µM: 17.6%
[1]
  inhibition at 10 µM: 34.8%
MDA-MB-468
  inhibition at 10 µM: 34.9%
OVCAR-3
  inhibition at 10 µM: < 15%
